This passage reports TGI and GI50 results from PubChem BioAssay (NCI).

Assay in all cases: DTP human tumour cell line panel, 48 h
Assay [1] concerns COLO 205 colon.
The test system of assay [2] is DU-145 prostate.
Assay [3] relates to HOP-18 NSCLC.
For assay [4], the system named is M14 melanoma.
Assay [5] deals with OVCAR-4 ovarian.
Assay [6] has as its system TK-10 renal.
The test system of assay [7] is UACC-257 melanoma.
In assay [8] the test system is UO-31 renal.
In assay [9] the test system is XF 498 CNS.

Each structure is given as a SMILES string. Values joined by “and” are separate entries in the source; they are usually repeats but may differ in a detail not shown here. Equal entries are not always repeated.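 Briefly, cells in 96-well plates were exposed to five compound concentrations for 48 h, and endpoints were estimated by linear interpolation. GI50 = concentration required for 50% inhibition of growth. At the TGI there is no net growth.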

With `CC(=O)Nc1ccc(C(=O)NN2C(=O)C(Cl)C2c2ccc(Cl)cc2)cc1` (centres undefined), the TGI in [1], in [2], in assay [3], in [4], in assay [5] and in assay [6] was > 100 µM throughout. Also, the TGI in assay [7] and in [8] was > 100 µM each time.
Turning to `CCN(CC)CC(O)CNc1ccc(NCC2CO2)c2c1C(=O)c1ccccc1C2=O` (centres undefined), the GI50 was 0.581 µM in assay [1] and 0.391 µM in assay [8]. Also, the TGI in assay [1] is 4.38 µM; in assay [2] it was 5.04 µM; in assay [3], 37 µM; in [4] it was 0.402 µM and 0.674 µM; in assay [5], 3.3 µM; in assay [6], 7.15 µM. Also, the TGI in [7] was found to be 4.04 µM; in assay [8] it was 3.35 µM.
Regarding `Cc1cc(Cl)ccc1NC(=O)CCCC(=O)C1CCCC1=O` (centres undefined), the TGI in assay [1], in [3], in [4], in assay [5], in assay [6] and in assay [7] was > 100 µM throughout. For the same compound, the TGI in [8] and in [9] was > 100 µM throughout.
For `O=C(Nc1cc(Cl)c(Cl)cc1Cl)C(=O)C1C=CCS1(=O)=O` (centres undefined), the TGI in [1], in assay [3], in [4], in assay [5], in assay [6] and in assay [7] was > 100 µM in each case. The TGI in [8] is > 100 µM.
Consider `CCCCCCCCC[C@@H]1CC(=O)OCC2OC(O[C@H](CCCCCCCCC)CC(=O)OCC3OC(O[C@H](CCCCCCCCC)CC(=O)OCC4OC(O1)C(O)C(O)C4O)C(O)C(O)C3O)C(O)C(O)C2O` (some centres undefined), for which the TGI in [1] is 8.3 µM; in assay [3] it was 0.0797 µM; in assay [4] it was 10.2 µM; in assay [5] it was 32.3 µM; in assay [6], 23.1 µM; in assay [7] it was 24.2 µM. Besides, the TGI was 24.6 µM in assay [8] and 23.3 µM in assay [9].
For the compound `O=S(=O)(N/N=C/c1ccc(/C=N/NS(=O)(=O)c2ccccc2)cc1)c1ccccc1`, the TGI was 43.1 µM in [1]; > 100 µM in [3]; > 100 µM in assay [4]; > 100 µM in assay [5]; > 100 µM in [6]; > 100 µM in [7]. For the same compound, the TGI in assay [8] and in assay [9] was > 100 µM in each case.
In the case of `O=[N+]([O-])c1cccc(C2N3CCCCC3[C@@H]3c4[nH]c5ccccc5c4CCN23)c1` (some centres undefined), the TGI in [1] was 32.8 µM; in assay [3], > 100 µM; in [4], 28 µM; in assay [5], 32.2 µM; in assay [6], 35.4 µM; in assay [7], 27 µM. In addition, the TGI worked out at 25.6 µM in assay [8] and 27 µM in assay [9].
As to `COc1c2nc(CCl)[nH]c(=O)c2c(OC)c2nc(CCl)[nH]c(=O)c12`, the total growth inhibition concentration (TGI) in assay [1], in [3], in assay [4], in assay [5], in assay [6] and in assay [7] was > 100 µM each time. Further, the TGI in [8] and in [9] was > 100 µM throughout.
Consider `CC/C(C)=C1\CCC(CN2CCOCC2)C1=O` (centres undefined), for which the TGI in assay [3] turned out to be 34.1 µM; in assay [4], 31.4 µM; in [5], 31.7 µM; in assay [6] it was 28 µM; in assay [7], 31.5 µM; in assay [8], 36.6 µM. In assay [9], this compound showed a TGI of 33.4 µM.
In the case of `CC(=O)OCC1OC(N2C(=O)C(=O)c3cc(C)ccc32)C(OC(C)=O)C(OC(C)=O)C1OC(C)=O` (centres undefined), the total growth inhibition concentration (TGI) in assay [1], in [3], in [4], in assay [5], in assay [6] and in assay [7] was > 100 µM throughout. Also, the TGI in assay [8] was > 100 µM.
Regarding `NNC(=O)/C(=C/c1ccc(Cl)c(Cl)c1)NC(=O)c1ccccc1`, the TGI in assay [1], in assay [4], in assay [5], in assay [6], in assay [7] and in assay [8] was > 100 µM in each case. Also, the TGI in assay [9] was > 100 µM.
As for `CCOC(=O)NC(=O)c1cn(CC(=O)NCC(=O)NCC(=O)NCCCN2CCN(CCCNC(=O)CNC(=O)CNC(=O)Cn3cc(C(=O)NC(=O)OCC)c(=O)[nH]c3=O)CC2)c(=O)[nH]c1=O`, the TGI in assay [1], in [3], in assay [4], in assay [6], in assay [7] and in [8] was > 100 µM in each case. In assay [9], the total growth inhibition concentration (TGI) is > 100 µM.
Consider `CCN(CC)CCCC(C)Nc1c2ccc(Cl)cc2nc2ccc(OC)cc12` (centres undefined), for which the concentration for total growth inhibition (TGI) was 3.11 µM and 7.34 µM in assay [1]; 6.37 µM in [2]; 3.36 µM and 3.39 µM in [4]; 5.05 µM and 3.74 µM in assay [5]; 11.8 µM and 13 µM in assay [6]; 3.43 µM and 3.38 µM in assay [7]. Besides, the TGI in [8] is 3.12 µM and 5.49 µM; in [9], 3.12 µM. The GI50 in [2] is 2.28 µM; in assay [8], 1.52 µM.
On to `COc1cc(Cl)c2c3c(c(C(C)=O)oc13)CCC2`, for which the TGI in [1], in assay [3], in assay [4], in [5], in assay [6] and in assay [7] was > 100 µM each time.
As for `COc1cc(/C=C(\C#N)C(=O)c2ccccc2)ccc1OCc1ccccc1`, the TGI in [1], in [4], in [5], in assay [6], in assay [7] and in assay [8] was > 100 µM each time. Besides, in assay [9], the TGI is > 100 µM.
On to `CC[C@@H]1OC2(C)CC(S(=O)(=O)c3ccccc3O)CC1O2` (some centres undefined), for which the TGI in [1], in [3], in [4], in assay [5], in assay [7] and in [8] was > 100 µM each time.
Regarding `Cc1[nH]c2ccccc2c1C1Cc2ccccc2N1C(=O)/C=C\C(=O)O` (centres undefined), the TGI in assay [1] is > 100 µM; in [4], > 100 µM; in assay [5], > 100 µM; in assay [6] it was > 100 µM; in [7], 37.8 µM; in assay [8] it was > 100 µM. The compound further gave a TGI in [9] of 47.8 µM.

Usually TGI stands for the concentration giving total growth inhibition. High values mean lower sensitivity of the cells, low ones greater sensitivity of the cells. What is called GI50 is the concentration that inhibits growth by half.
